≈ marks a conversion by molar mass, not a printed value.
Assays:
Assay in all cases: Anti-microbial activity test in vitro (agar dilution MIC)
VRE C6488 = type: cell-based, Enterococcus faecium; details: VRE C6488; Agar Dilution method, Mueller Hinton Agar, 18 hours at 37° C.
Method: (§1) Anti-microbial activity test in vitro
(§2) Strains were cultivated for 18 hours at 37° C. in Agar Dilution method using Mueller Hinton Agar, and then plane plates inoculated with the strains by diluting them two times gradually were aligned in a row. Minimum inhibition concentration (MIC, μg/ml) for the representative compounds of the present invention, Linezolid (LZD) and vancomycin (VAN) were decided through visual observation, and the results are shown in the following tables 2 and 3.

VRE C6487 = type: cell-based, Enterococcus faecium; details: VRE C6487; Agar Dilution method, Mueller Hinton Agar, 18 hours at 37° C.
Method: as §1, §2

E. faecalis C6291 = type: cell-based; details: E. faecalis C6291; Agar Dilution method, Mueller Hinton Agar, 18 hours at 37° C.
Method: as §1, §2

S. aureus ATCC 29213 = type: cell-based; details: Agar Dilution method, Mueller Hinton Agar, 18 hours at 37° C.
Method: as §1, §2

S. epidermidis ATCC12228 = type: cell-based; details: S. epidermidis ATCC12228; Agar Dilution method, Mueller Hinton Agar, 18 hours at 37° C.
Method: as §1, §2

S. pyogenes C6003 = type: cell-based; details: S. pyogenes C6003; Agar Dilution method, Mueller Hinton Agar, 18 hours at 37° C.
Method: as §1, §2

S. epidermidis C2235 = type: cell-based; details: S. epidermidis C2235; Agar Dilution method, Mueller Hinton Agar, 18 hours at 37° C.
Method: as §1, §2

S. epidermidis C2230 = type: cell-based; details: S. epidermidis C2230; Agar Dilution method, Mueller Hinton Agar, 18 hours at 37° C.
Method: as §1, §2

E. faecalis ATCC29212 = type: cell-based; details: E. faecalis ATCC29212; Agar Dilution method, Mueller Hinton Agar, 18 hours at 37° C.
Method: as §1, §2

E. faecium C2252 = type: cell-based; details: E. faecium C2252; Agar Dilution method, Mueller Hinton Agar, 18 hours at 37° C.
Method: as §1, §2

S. pyogenes ATCC8668 = type: cell-based; details: S. pyogenes ATCC8668; Agar Dilution method, Mueller Hinton Agar, 18 hours at 37° C.
Method: as §1, §2

S. pyogenes C6012 = type: cell-based; details: S. pyogenes C6012; Agar Dilution method, Mueller Hinton Agar, 18 hours at 37° C.
Method: as §1, §2

E. faecium C6301 = type: cell-based; details: E. faecium C6301; Agar Dilution method, Mueller Hinton Agar, 18 hours at 37° C.
Method: as §1, §2

E. faecalis C6288 = type: cell-based; details: E. faecalis C6288; Agar Dilution method, Mueller Hinton Agar, 18 hours at 37° C.
Method: as §1, §2

CRSA C6043 = type: cell-based, Staphylococcus aureus; details: CRSA C6043; Agar Dilution method, Mueller Hinton Agar, 18 hours at 37° C.
Method: as §1, §2

MRSA C6068 = type: cell-based, Staphylococcus aureus; details: MRSA C6068; Agar Dilution method, Mueller Hinton Agar, 18 hours at 37° C.
Method: as §1, §2

MRSA C5100 = type: cell-based, Staphylococcus aureus; details: MRSA C5100; Agar Dilution method, Mueller Hinton Agar, 18 hours at 37° C.
Method: as §1, §2

MSSA C7142 = type: cell-based, Staphylococcus aureus; details: MSSA C7142; Agar Dilution method, Mueller Hinton Agar, 18 hours at 37° C.
Method: as §1, §2

CRSA C1062 = type: cell-based, Staphylococcus aureus; details: CRSA C1062; Agar Dilution method, Mueller Hinton Agar, 18 hours at 37° C.
Method: as §1, §2

MSSA C2214 = type: cell-based, Staphylococcus aureus; details: MSSA C2214; Agar Dilution method, Mueller Hinton Agar, 18 hours at 37° C.
Method: as §1, §2

MRSA C2207 = type: cell-based, Staphylococcus aureus; details: MRSA C2207; Agar Dilution method, Mueller Hinton Agar, 18 hours at 37° C.
Method: as §1, §2

SMILES	Minimum inhibition concentration (MIC) (VRE C6488)	Minimum inhibition concentration (MIC) (VRE C6487)	Minimum inhibition concentration (MIC) (E. faecalis C6291)	Minimum inhibition concentration (MIC) (S. aureus ATCC 29213)	Minimum inhibition concentration (MIC) (S. epidermidis ATCC12228)	Minimum inhibition concentration (MIC) (S. pyogenes C6003)	Minimum inhibition concentration (MIC) (S. epidermidis C2235)	Minimum inhibition concentration (MIC) (S. epidermidis C2230)	Minimum inhibition concentration (MIC) (E. faecalis ATCC29212)	Minimum inhibition concentration (MIC) (E. faecium C2252)	Minimum inhibition concentration (MIC) (S. pyogenes ATCC8668)	Minimum inhibition concentration (MIC) (S. pyogenes C6012)	Minimum inhibition concentration (MIC) (E. faecium C6301)	Minimum inhibition concentration (MIC) (E. faecalis C6288)	Minimum inhibition concentration (MIC) (CRSA C6043)	Minimum inhibition concentration (MIC) (MRSA C6068)	Minimum inhibition concentration (MIC) (MRSA C5100)	Minimum inhibition concentration (MIC) (MSSA C7142)	Minimum inhibition concentration (MIC) (CRSA C1062)	Minimum inhibition concentration (MIC) (MSSA C2214)	other results
CC(=O)NC[C@H]1CN(c2ccc(N3CCC(=C(C)C#N)CC3)c(F)c2)C(=O)O1 [Compound 16, N-[[(5S)-3-[3-fluoro-4-(4-(1-cyanoethylidene)piperidinyl)-phenyl]-2-oxo-5-oxazolidinyl]methyl]acetamide]	1 µg/mL (≈ 2.59 µM)	0.5 µg/mL (≈ 1.29 µM)	2 µg/mL (≈ 5.18 µM)	2 µg/mL (≈ 5.18 µM)	0.5 µg/mL (≈ 1.29 µM)	0.5 µg/mL (≈ 1.29 µM)	2 µg/mL (≈ 5.18 µM)	2 µg/mL (≈ 5.18 µM)	2 µg/mL (≈ 5.18 µM)	2 µg/mL (≈ 5.18 µM)	2 µg/mL (≈ 5.18 µM)	2 µg/mL (≈ 5.18 µM)	2 µg/mL (≈ 5.18 µM)	2 µg/mL (≈ 5.18 µM)	2 µg/mL (≈ 5.18 µM)	2 µg/mL (≈ 5.18 µM)	2 µg/mL (≈ 5.18 µM)	2 µg/mL (≈ 5.18 µM)	2 µg/mL (≈ 5.18 µM)	2 µg/mL (≈ 5.18 µM)	Minimum inhibition concentration (MIC) (MRSA C2207): 2 µg/mL (≈ 5.18 µM)
CC(=O)NC[C@H]1CN(c2ccc(N3CCC(=Cc4cc(-c5cccs5)no4)CC3)c(F)c2)C(=O)O1 [Compound 9, N-[[(5S)-3-[3-fluoro-4-((4-(3-thiophen-2-yl-5-isoxazolyl)-methylidene)piperidinyl)phenyl]-2-oxo-5-oxazolidinyl]methyl]acetamide]	16 µg/mL (≈ 32.2 µM)	16 µg/mL (≈ 32.2 µM)	16 µg/mL (≈ 32.2 µM)	32 µg/mL (≈ 64.4 µM)	4 µg/mL (≈ 8.06 µM)	16 µg/mL (≈ 32.2 µM)	8 µg/mL (≈ 16.1 µM)	8 µg/mL (≈ 16.1 µM)	16 µg/mL (≈ 32.2 µM)	16 µg/mL (≈ 32.2 µM)	2 µg/mL (≈ 4.03 µM)	4 µg/mL (≈ 8.06 µM)	16 µg/mL (≈ 32.2 µM)	16 µg/mL (≈ 32.2 µM)	16 µg/mL (≈ 32.2 µM)	16 µg/mL (≈ 32.2 µM)	16 µg/mL (≈ 32.2 µM)	32 µg/mL (≈ 64.4 µM)	32 µg/mL (≈ 64.4 µM)	16 µg/mL (≈ 32.2 µM)	Minimum inhibition concentration (MIC) (MRSA C2207): 32 µg/mL (≈ 64.4 µM)
CC(=O)NC[C@H]1CN(c2ccc(N3CCC(=Cc4cc(-c5csnc5C)no4)CC3)c(F)c2)C(=O)O1 [Compound 10, N-[[(5S)-3-[3-fluoro-4-((4-(3-(3-methyl-isothiazol-4-yl)-iso-xazolyl)methylidene)piperidinyl)phenyl]-2-oxo-5-oxazolidinyl]methyl]acetamide]	8 µg/mL (≈ 15.6 µM)	4 µg/mL (≈ 7.82 µM)	8 µg/mL (≈ 15.6 µM)	16 µg/mL (≈ 31.3 µM)	2 µg/mL (≈ 3.91 µM)	8 µg/mL (≈ 15.6 µM)	4 µg/mL (≈ 7.82 µM)	4 µg/mL (≈ 7.82 µM)	16 µg/mL (≈ 31.3 µM)	8 µg/mL (≈ 15.6 µM)	2 µg/mL (≈ 3.91 µM)	2 µg/mL (≈ 3.91 µM)	8 µg/mL (≈ 15.6 µM)	16 µg/mL (≈ 31.3 µM)	16 µg/mL (≈ 31.3 µM)	8 µg/mL (≈ 15.6 µM)	8 µg/mL (≈ 15.6 µM)	8 µg/mL (≈ 15.6 µM)	16 µg/mL (≈ 31.3 µM)	16 µg/mL (≈ 31.3 µM)	Minimum inhibition concentration (MIC) (MRSA C2207): 16 µg/mL (≈ 31.3 µM)
CC(=O)NC[C@H]1CN(c2ccc(N3CCC(=CC=NO)CC3)c(F)c2)C(=O)O1 [Compound 18, N-[[(5S)-3-[3-fluoro-4-(4-(2-hydroxyiminoethylidene)-piperidinyl)phenyl]-2-oxo-5-oxazolidinyl]methyl]acetamide]	4 µg/mL (≈ 10.2 µM)	4 µg/mL (≈ 10.2 µM)	4 µg/mL (≈ 10.2 µM)	8 µg/mL (≈ 20.5 µM)	1 µg/mL (≈ 2.56 µM)	4 µg/mL (≈ 10.2 µM)	4 µg/mL (≈ 10.2 µM)	4 µg/mL (≈ 10.2 µM)	8 µg/mL (≈ 20.5 µM)	4 µg/mL (≈ 10.2 µM)	2 µg/mL (≈ 5.12 µM)	1 µg/mL (≈ 2.56 µM)	4 µg/mL (≈ 10.2 µM)	4 µg/mL (≈ 10.2 µM)	8 µg/mL (≈ 20.5 µM)	4 µg/mL (≈ 10.2 µM)	4 µg/mL (≈ 10.2 µM)	8 µg/mL (≈ 20.5 µM)	8 µg/mL (≈ 20.5 µM)	8 µg/mL (≈ 20.5 µM)	Minimum inhibition concentration (MIC) (MRSA C2207): 8 µg/mL (≈ 20.5 µM)
CC(=O)NC[C@H]1CN(c2ccc(N3CCC(=CC(C)OC(C)=O)CC3)c(F)c2)C(=O)O1 (stereo partly drawn) [Compound 23, N-[[(5S)-3-[3-fluoro-4-(4-(2-acetoxypropylidene)-piperidinyl)phenyl]-2-oxo-5-oxazolidinyl]methyl]acetamide]	4 µg/mL (≈ 9.23 µM)	4 µg/mL (≈ 9.23 µM)	8 µg/mL (≈ 18.5 µM)	16 µg/mL (≈ 36.9 µM)	2 µg/mL (≈ 4.61 µM)	8 µg/mL (≈ 18.5 µM)	8 µg/mL (≈ 18.5 µM)	8 µg/mL (≈ 18.5 µM)	8 µg/mL (≈ 18.5 µM)	8 µg/mL (≈ 18.5 µM)	0.5 µg/mL (≈ 1.15 µM)	2 µg/mL (≈ 4.61 µM)	8 µg/mL (≈ 18.5 µM)	8 µg/mL (≈ 18.5 µM)	16 µg/mL (≈ 36.9 µM)	8 µg/mL (≈ 18.5 µM)	16 µg/mL (≈ 36.9 µM)	16 µg/mL (≈ 36.9 µM)	16 µg/mL (≈ 36.9 µM)	16 µg/mL (≈ 36.9 µM)	Minimum inhibition concentration (MIC) (MRSA C2207): 8 µg/mL (≈ 18.5 µM)
